Key:
[1] = molecular target: T1, LRRK2 (G2019S mutation, GST-LRRK2 (amino acids 970-2527)) (Homo sapiens, UniProt Q5S007, G2019S); experiment: LRRK2 5 mM ATP LanthaScreen Assay; type: biochemical; conditions: mean IC50
T1 construct: GST-LRRK2 (amino acids 970-2527); GST (N); purchased Life Technologies Corporation
Experimental: (§1) The data presented for the 5 mM and Km ATP LanthaScreen™ Assay represents mean IC50 values based on several test results and may have reasonable. deviations depending on the specific conditions and reagents used. Reagents for the LRRK2 5 mM and Km ATP LanthaScreen™ Assay were purchased from Life Technologies Corporation.
LRRK2 5 mM ATP LanthaScreen™ Assay
(§2) • a) 400 nl of a 1:2.15 serial dilution of test compound (98 μM top assay concentration) is spotted via Labcyte Echo to certain wells in a 384 well black, untreated plate. Control wells contain 400 nl of either DMSO or 400 nl of a known inhibitor in DMSO. • b) 10 μl of a 2.5 nM LRRK2 (G2019S mutation, GST-LRRK2 (amino acids 970-2527)) enzyme solution in 1× assay buffer (50 mM Tris pH 8.5, 10 mM MgCl2, 0.01% Brij-35, 1.0 mM EGTA, 2 mM DTT, 0.05 mM NaVO4) is added to all wells. • c) A 30 minute room temperature incubation is followed by addition of 10 μl of 800 nM fluorescein labeled LRRKtide peptide substrate and 10 mM ATP solution in 1× assay buffer to all wells. • d) After a 35 minute room temperature incubation, 20 μl of TR-FRET Dilution Buffer (Invitrogen PV3756B) containing 4 nM Tb-labeled anti-phospho LRRKtide antibody and 20 mM EDTA is added to all wells. • e) Plates are incubated at room temperature for 1 hour and read on an Envision™ multi-mode plate reader with LanthaScreen™ settings. Results are analysed using Assay Data Analyzer. […] Results are analysed using Assay Data Analyzer.

[2] = molecular target: T1, LRRK2 (G2019S mutation, GST-LRRK2 (amino acids 970-2527)); experiment: LRRK2 Km ATP LanthaScreen Assay; type: biochemical; conditions: mean IC50
Experimental: Unless otherwise noted, all LRRK2 IC50 data presented in tables refers to the LRRK2 Km ATP LanthaScreen™ Assay that is described in the Biological Assay section.
as §1
as §2, with “[…])” for “of 800 nM fluorescein labeled LRRKtide peptide substrate and 10 mM ATP solution in 1× assay buffer to all wells. • d)”

T1 sequence (Q5S007 970-2527 G2019S): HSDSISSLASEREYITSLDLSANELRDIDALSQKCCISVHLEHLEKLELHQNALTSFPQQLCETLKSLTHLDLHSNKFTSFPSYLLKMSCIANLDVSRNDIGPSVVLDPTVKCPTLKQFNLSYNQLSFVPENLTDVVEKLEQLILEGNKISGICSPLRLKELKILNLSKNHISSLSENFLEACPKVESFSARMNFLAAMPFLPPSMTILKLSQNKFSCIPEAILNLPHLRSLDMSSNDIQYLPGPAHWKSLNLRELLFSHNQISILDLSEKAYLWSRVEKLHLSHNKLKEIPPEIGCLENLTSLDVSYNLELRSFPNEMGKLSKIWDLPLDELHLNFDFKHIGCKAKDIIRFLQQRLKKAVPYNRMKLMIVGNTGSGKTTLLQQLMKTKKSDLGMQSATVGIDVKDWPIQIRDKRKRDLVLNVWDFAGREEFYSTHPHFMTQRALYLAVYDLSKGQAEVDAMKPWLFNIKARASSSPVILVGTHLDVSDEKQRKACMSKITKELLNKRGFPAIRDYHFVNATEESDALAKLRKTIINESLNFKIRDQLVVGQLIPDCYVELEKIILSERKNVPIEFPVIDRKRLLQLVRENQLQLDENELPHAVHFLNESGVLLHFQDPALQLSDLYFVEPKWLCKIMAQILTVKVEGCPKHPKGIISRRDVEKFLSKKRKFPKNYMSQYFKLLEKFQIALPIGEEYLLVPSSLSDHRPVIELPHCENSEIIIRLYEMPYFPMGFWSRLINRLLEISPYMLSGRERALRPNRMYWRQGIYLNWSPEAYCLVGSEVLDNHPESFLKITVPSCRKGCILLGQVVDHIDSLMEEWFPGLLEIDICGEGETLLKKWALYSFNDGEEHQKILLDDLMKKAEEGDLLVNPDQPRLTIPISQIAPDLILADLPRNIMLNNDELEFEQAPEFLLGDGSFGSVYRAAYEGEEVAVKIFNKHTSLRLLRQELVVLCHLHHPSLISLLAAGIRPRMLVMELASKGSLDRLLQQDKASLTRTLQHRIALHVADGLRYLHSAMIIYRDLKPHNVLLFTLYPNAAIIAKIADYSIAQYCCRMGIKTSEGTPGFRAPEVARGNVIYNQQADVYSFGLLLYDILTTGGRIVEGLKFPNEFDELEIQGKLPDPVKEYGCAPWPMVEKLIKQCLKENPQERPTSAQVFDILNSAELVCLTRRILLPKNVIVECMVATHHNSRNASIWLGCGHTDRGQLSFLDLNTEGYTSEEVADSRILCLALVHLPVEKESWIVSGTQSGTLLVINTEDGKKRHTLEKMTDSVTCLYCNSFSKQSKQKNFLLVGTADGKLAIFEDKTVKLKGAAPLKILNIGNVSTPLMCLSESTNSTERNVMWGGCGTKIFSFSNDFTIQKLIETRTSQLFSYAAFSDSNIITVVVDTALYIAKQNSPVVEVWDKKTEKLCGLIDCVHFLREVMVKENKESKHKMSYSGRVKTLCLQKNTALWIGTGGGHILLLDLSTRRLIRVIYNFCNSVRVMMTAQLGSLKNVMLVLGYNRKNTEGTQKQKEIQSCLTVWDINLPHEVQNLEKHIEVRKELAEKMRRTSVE

| IC50 [1] [nM] | IC50 [2] [nM] | SMILES |
| --- | --- | --- |
| 300 | 12 | c1cc(-c2n[nH]c3ccc(OC4CC4)cc23)cc(N2CCN(C3CC3)CC2)n1 [Example 26] |
| 225 | 16 | c1cc(-c2n[nH]c3ccc(OC4CC4)cc23)cc(N2CCC2)n1 [Example 9] |
| 297 | 12 | CCc1nnc2n1CCN(c1cc(-c3n[nH]c4ccc(OC5CC5)cc34)ccn1)C2 [Example 23] |

Source: patent US9688654B2, “Compounds inhibiting leucine-rich repeat kinase enzyme activity” (Merck Sharp & Dohme Corp., priority 2013, dated 2017)
